# Measured values published in paper PMC8591507, “Progesterone receptor membrane component 1 (PGRMC1) binds and stabilizes cytochromes P450 through a heme-independent mechanism” (The Journal of Biological Chemistry, 2021).
# Assays:
# [1] = target: T1, Y113F PGRMC1 (progesterone receptor membrane component 1) (Homo sapiens, UniProt O00264, Y113F); assay: spectrophotometric hemin titration (A394), Hill fit; assay type: binding
# T1 construct: recombinant truncated human PGRMC1 (aa 43–195), His tag removed by thrombin
# T1 sequence (O00264 43-195 Y113F): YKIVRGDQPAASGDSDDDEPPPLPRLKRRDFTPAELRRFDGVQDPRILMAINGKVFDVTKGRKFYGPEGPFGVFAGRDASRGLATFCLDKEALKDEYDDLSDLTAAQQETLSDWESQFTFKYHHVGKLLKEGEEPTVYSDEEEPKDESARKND
# [2] = target: T2, PGRMC1 (progesterone receptor membrane component 1) (Homo sapiens, UniProt O00264); assay: as above; assay type: binding
# T2 construct: recombinant truncated human PGRMC1 (aa 43–195), His tag removed by thrombin
# T2 sequence (O00264 43-195): as the sequence (O00264 43-195 Y113F) above, with F71Y counted along it
compound,measurement,setting,value
C=CC1=C(C)C2=Cc3c(C=C)c(C)c4[n]3[Fe]([Cl])[n]3c(c(C)c(CCC(=O)O)c3=CC3=NC(=C4)C(C)=C3CCC(=O)O)=CC1=N2 [hemin],Kd,[1],4.7 ± 0.42 µM
same,Kd,[2],4.9 ± 0.33 µM
